# In patent US20050209278A1, “Piperidinyl- and piperazinyl-sulfonylmethyl hydroxamic acids and their use as protease inhibitors” (priority 2002, published 2005):
# Structures can show the parent of a compound that is named as a salt. Where two headings read alike, the source gives them in different places.
# Legend:
# Format in all cases: biochemical
# MMP-1 = target: T1, MMP-1 (Homo sapiens, UniProt P03956); assay: MMP-1 inhibition (in vitro Ki)
# T1 construct: made in house; host or cells: MMP-1-transfected HT-1080 cells (spent media)
# T1 sequence (P03956 100-469): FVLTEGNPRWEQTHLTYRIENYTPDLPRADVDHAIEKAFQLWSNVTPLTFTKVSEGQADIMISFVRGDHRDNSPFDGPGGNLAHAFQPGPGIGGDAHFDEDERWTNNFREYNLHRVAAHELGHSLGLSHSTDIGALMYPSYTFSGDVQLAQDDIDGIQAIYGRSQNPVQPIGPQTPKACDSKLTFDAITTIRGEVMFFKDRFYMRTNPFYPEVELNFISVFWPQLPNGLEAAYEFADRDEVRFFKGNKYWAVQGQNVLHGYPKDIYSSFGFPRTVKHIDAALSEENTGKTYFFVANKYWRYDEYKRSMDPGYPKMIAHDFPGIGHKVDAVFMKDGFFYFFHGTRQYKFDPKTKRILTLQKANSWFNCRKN
# MMP-2 = target: T2, MMP-2 (Homo sapiens, UniProt P08253); assay: MMP-2 inhibition (in vitro Ki)
# T2 construct: made in house; host or cells: MMP-2-transfected p2AHT2 cells
# T2 sequence (P08253 110-660): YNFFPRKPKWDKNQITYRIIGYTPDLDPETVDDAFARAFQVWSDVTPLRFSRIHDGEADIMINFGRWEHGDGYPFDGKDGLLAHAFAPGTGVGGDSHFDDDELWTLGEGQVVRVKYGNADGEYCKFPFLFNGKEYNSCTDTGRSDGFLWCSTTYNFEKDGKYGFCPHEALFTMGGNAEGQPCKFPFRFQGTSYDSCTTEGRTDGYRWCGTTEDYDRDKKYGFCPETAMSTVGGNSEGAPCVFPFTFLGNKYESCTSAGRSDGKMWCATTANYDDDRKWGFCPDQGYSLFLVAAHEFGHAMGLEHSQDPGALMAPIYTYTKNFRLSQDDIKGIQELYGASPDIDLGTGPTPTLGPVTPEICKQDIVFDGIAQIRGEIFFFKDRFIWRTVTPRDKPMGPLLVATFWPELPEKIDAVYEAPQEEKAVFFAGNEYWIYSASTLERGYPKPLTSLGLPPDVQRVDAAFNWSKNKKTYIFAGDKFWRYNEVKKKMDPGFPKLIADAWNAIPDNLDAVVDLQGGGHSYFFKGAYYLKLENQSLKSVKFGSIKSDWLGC
# MMP-9 = target: T3, MMP-9 (Homo sapiens, UniProt P14780); assay: MMP-9 inhibition (in vitro Ki)
# T3 construct: made in house; host or cells: MMP-9-transfected HT1080 cells (spent media)
# MMP-13 = target: T4, MMP-13 (Homo sapiens, UniProt P45452); assay: MMP-13 inhibition (in vitro Ki)
# T4 construct: made in house; host or cells: baculovirus / insect cells
# MMP-14 = target: T5, MMP-14 (Homo sapiens, UniProt P50281); assay: MMP-14 inhibition (in vitro Ki)
# T5 construct: The catalytic domain enzyme was expressed in E. coli inclusion bodies, solubilized in urea; made in house
# [1] = Table 9, read-out: MMP-1 Ki (IC-50)
# [2] = Table 9, read-out: MMP-2 Ki (IC-50)
# [3] = Table 9, read-out: MMP-9 Ki (IC-50)
# [4] = Table 9, read-out: MMP-13 Ki (IC-50)
# [5] = Table 9, read-out: MMP-14 Ki (IC-50)
# T3 sequence (P14780 107-707 limits assumed): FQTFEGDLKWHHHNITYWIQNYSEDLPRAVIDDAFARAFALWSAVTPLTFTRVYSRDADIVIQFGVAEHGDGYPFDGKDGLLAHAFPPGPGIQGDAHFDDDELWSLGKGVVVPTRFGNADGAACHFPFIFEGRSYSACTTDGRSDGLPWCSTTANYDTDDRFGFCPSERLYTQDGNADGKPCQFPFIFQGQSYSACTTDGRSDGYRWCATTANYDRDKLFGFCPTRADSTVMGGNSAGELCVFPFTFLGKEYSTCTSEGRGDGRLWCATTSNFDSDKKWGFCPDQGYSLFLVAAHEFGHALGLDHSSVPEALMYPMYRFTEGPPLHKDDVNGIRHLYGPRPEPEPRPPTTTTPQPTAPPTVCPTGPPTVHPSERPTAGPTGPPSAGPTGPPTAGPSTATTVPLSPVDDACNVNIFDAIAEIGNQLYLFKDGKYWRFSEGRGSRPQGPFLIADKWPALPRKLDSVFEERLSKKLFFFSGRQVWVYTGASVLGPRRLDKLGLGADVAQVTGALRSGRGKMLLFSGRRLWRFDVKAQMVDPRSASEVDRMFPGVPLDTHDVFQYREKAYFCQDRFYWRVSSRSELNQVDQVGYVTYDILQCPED
SMILES,"Ki (MMP-1; Table 8, read-out: MMP-1 Ki)","Ki (MMP-2; Table 8, read-out: MMP-2 Ki)","Ki (MMP-9; Table 8, read-out: MMP-9 Ki)","Ki (MMP-13; Table 8, read-out: MMP-13 Ki)","Ki (MMP-14; Table 8, read-out: MMP-14 Ki)",Ki (MMP-1; [1]),Ki (MMP-2; [2]),Ki (MMP-9; [3]),Ki (MMP-13; [4]),Ki (MMP-14; [5])
"COCCC(CCOC)(C(=O)NO)S(=O)(=O)N1CCC(c2ccc(CCC(F)(F)C(F)(F)F)cn2)CC1 [Example A61, N-hydroxy-4-methoxy-2-(2-methoxyethyl)-2-({4-[5-(3,3,4,4,4-pentafluorobutyl)pyridin-2-yl]piperidin-1-yl}sulfonyl)butanamide Hydrochloride]",3530 nM,0.98 nM,0.38 nM,0.16 nM,4170 nM,–,–,–,–,–
"O=C(NO)C1(S(=O)(=O)N2CCC(COCCCC(F)(F)F)CC2)CCOCC1 [Example A42, 4-[4-(4,4,4-trifluoro-butoxymethyl)-piperidine-1-sulfonyl]-tetrahydro-pyran-4-carboxylic Acid Hydroxyamide]",> 10000 nM,22 nM,28.6 nM,33.3 nM,> 10000 nM,–,–,–,–,–
"O=C(NO)C1(S(=O)(=O)N2CCC(OCCCCCC(F)(F)C(F)(F)F)CC2)CCOCC1 [Example A50, 4-[4-(6,6,7,7,7-pentafluoro-heptyloxy)-piperidine-1-sulfonyl]-tetrahydro-pyran-4-carboxylic Acid Hydroxyamide]",> 10000 nM,1.57 nM,7.1 nM,0.6 nM,4560 nM,–,–,–,–,–
CC(C)(C)CCOC1CCN(S(=O)(=O)C2(C(=O)NO)CCOCC2)CC1 [Example A36E],> 10000 nM,112 nM,365 nM,65.8 nM,4250 nM,–,–,–,–,–
"O=C(NO)C1(S(=O)(=O)N2CCC(CCCCOCCCC(F)(F)F)CC2)CCOCC1 [Example A40, 4-{4-[4-(4,4,4-trifluoro-butoxy)-butyl]-piperidine-1-sulfonyl}-tetrahydro-pyran-4-carboxylic Acid Hydroxyamide]",4260 nM,6.99 nM,46.4 nM,0.6 nM,3420 nM,–,–,–,–,–
CN(CC1CCCCC1)C(=O)CCCC1CCN(S(=O)(=O)C2(C(=O)NO)CCOCC2)CC1 [Example A111],–,–,–,–,–,> 10000 nM,364 nM,1710 nM,9.09 nM,> 10000 nM
"O=C(NO)C1(S(=O)(=O)N2CCC(CCCCCCCC(F)(F)F)CC2)CCOCC1 [Example A52, 4-[4-(8,8,8-trifluoro-octyl)-piperidine-1-sulfonyl]-tetrahydro-pyran-4-carboxylic Acid Hydroxyamide]",3930 nM,0.55 nM,1.03 nM,0.23 nM,922 nM,–,–,–,–,–
O=C(NO)C1(S(=O)(=O)N2CCC(c3ccc(CCC(F)(F)C(F)(F)F)cn3)CC2)CCNCC1 [Example A170],–,–,–,–,–,> 10000 nM,4.21 nM,4.01 nM,1.55 nM,> 10000 nM
CCCCc1cnc(C2CCN(S(=O)(=O)C3(C(=O)NO)CCOCC3)CC2)nc1 [Example A196],–,–,–,–,–,> 10000 nM,70 nM,2.02 nM,21.8 nM,> 10000 nM
CCCN(C(=O)CCCC1CCN(S(=O)(=O)C2(C(=O)NO)CCOCC2)CC1)c1ccccc1 [Example A145],–,–,–,–,–,> 10000 nM,26.3 nM,15.2 nM,23 nM,6520 nM
CC(C)CCCCCOC1CCN(S(=O)(=O)C2(C(=O)NO)CCOCC2)CC1 [Example A36F],> 10000 nM,2.47 nM,2.26 nM,1.11 nM,1900 nM,–,–,–,–,–
CCN1CCC(C(=O)NO)(S(=O)(=O)N2CCC(c3ccc(CCC(F)(F)C(F)(F)F)cn3)CC2)CC1 [Example A181],–,–,–,–,–,> 10000 nM,2.36 nM,1.33 nM,0.61 nM,> 10000 nM
O=C(NO)C1(S(=O)(=O)N2CCC(c3ccc(CCC(F)(F)C(F)(F)F)cn3)CC2)CCN(Cc2ccccc2)CC1 [Example A174],–,–,–,–,–,> 10000 nM,1.31 nM,0.73 nM,0.52 nM,6520 nM
O=C(NO)C1(S(=O)(=O)N2CCC(c3ccc(CCC(F)(F)C(F)(F)F)cn3)CC2)Cc2ccccc2C1 [Example A113],–,–,–,–,–,9730 nM,1.28 nM,0.8 nM,0.34 nM,4410 nM
O=C(NO)C1(S(=O)(=O)N2CCC(OCCCc3ccccc3)CC2)CCOCC1 [Example A36G],> 10000 nM,31.1 nM,16.4 nM,30.2 nM,2610 nM,–,–,–,–,–
CCCCOCCCC1CCN(S(=O)(=O)C2(C(=O)NO)CCOCC2)CC1 [Example A36I],> 10000 nM,9.08 nM,2.57 nM,7.7 nM,6370 nM,–,–,–,–,–
O=C(NO)C1(S(=O)(=O)N2CCC(c3ccc(COCC(F)(F)F)cn3)CC2)CCOCC1 [Example A173],–,–,–,–,–,> 10000 nM,7.59 nM,1.84 nM,1.91 nM,> 10000 nM

# The remaining molecules from weak to strong by Ki (MMP-1; [1]), led by results:
"Ki (MMP-1; Table 8, read-out: MMP-1 Ki)","Ki (MMP-2; Table 8, read-out: MMP-2 Ki)","Ki (MMP-9; Table 8, read-out: MMP-9 Ki)","Ki (MMP-13; Table 8, read-out: MMP-13 Ki)","Ki (MMP-14; Table 8, read-out: MMP-14 Ki)",Ki (MMP-1; [1]),Ki (MMP-2; [2]),Ki (MMP-9; [3]),Ki (MMP-13; [4]),Ki (MMP-14; [5]),SMILES
–,–,–,–,–,7360 nM,178 nM,1590 nM,1.94 nM,> 10000 nM,O=C(/C=C/C=C/C1CCN(S(=O)(=O)C2(C(=O)NO)CCOCC2)CC1)N1CCOCC1 [Example A208]
–,–,–,–,–,7170 nM,2.29 nM,0.45 nM,1.48 nM,5290 nM,CC(C)COc1cnc(C2CCN(S(=O)(=O)C3(C(=O)NO)CCOCC3)CC2)cn1 [Example A132]
–,–,–,–,–,6600 nM,0.56 nM,0.4 nM,0.18 nM,3600 nM,O=C(CO)N1CCC(C(=O)NO)(S(=O)(=O)N2CCC(c3ccc(CCC(F)(F)C(F)(F)F)cn3)CC2)CC1 [Example A118]
–,–,–,–,–,6200 nM,1100 nM,5910 nM,6.79 nM,> 10000 nM,CC(C)CN(C)C(=O)/C=C/C=C/C1CCN(S(=O)(=O)C2(C(=O)NO)CCOCC2)CC1 [Example A77]
–,–,–,–,–,5850 nM,4.25 nM,16.8 nM,2.14 nM,3380 nM,Cn1cc(-c2ccc(C3CCN(S(=O)(=O)C4(C(=O)NO)CCOCC4)CC3)nc2)cn1 [Example A201]
–,–,–,–,–,5190 nM,3.33 nM,8.82 nM,0.84 nM,> 10000 nM,O=C(NO)C1(S(=O)(=O)N2CCC(c3ccc(C(F)(F)CCC(F)(F)F)cn3)CC2)CCOCC1 [Example A128]
–,–,–,–,–,4440 nM,2.89 nM,0.86 nM,0.85 nM,3370 nM,COCCC(CCOC)(C(=O)NO)S(=O)(=O)N1CCC(c2ccc(CCC(F)(F)C(F)(F)F)cn2)CC1 [Example A107]
–,–,–,–,–,3590 nM,0.33 nM,1.16 nM,0.93 nM,297 nM,O=C(NO)C1(S(=O)(=O)N2CCN(c3ccc(-c4ccsc4)c(F)c3)CC2)CCOCC1 [Example A205]
–,–,–,–,–,2420 nM,172 nM,428 nM,0.52 nM,> 10000 nM,O=C(/C=C/C=C/C1CCN(S(=O)(=O)C2(C(=O)NO)CCOCC2)CC1)N1CCCCC1 [Example A78]
–,–,–,–,–,2290 nM,1.7 nM,1.5 nM,1.72 nM,8570 nM,CC(F)(F)COc1ccc(C2CCN(S(=O)(=O)C3(C(=O)NO)CCOCC3)CC2)nc1 [Example A168]
–,–,–,–,–,2170 nM,0.52 nM,0.18 nM,0.23 nM,1130 nM,O=C(NO)C1(S(=O)(=O)N2CCC(c3ccc(CCC(F)(F)F)cn3)CC2)CCCC1 [Example A105]
–,–,–,–,–,1570 nM,0.18 nM,6.81 nM,0.34 nM,2430 nM,O=C(NO)C1(S(=O)(=O)N2CCN(c3ccc(-c4cccnc4)c(F)c3)CC2)CCOCC1 [Example A195]
–,–,–,–,–,854 nM,0.07 nM,1.37 nM,0.09 nM,591 nM,O=C(NO)C1(S(=O)(=O)N2CCN(c3ccc(-c4nnn(CC5CC5)n4)cc3)CC2)CCOCC1 [Example A175]
–,–,–,–,–,708 nM,190 nM,1820 nM,0.92 nM,> 10000 nM,CN(CC1CCCCC1)C(=O)CCCCC1CCN(S(=O)(=O)C2(C(=O)NO)CCOCC2)CC1 [Example A112]
